Where two headings read alike, the source gives them in different places.
Assays:
[1] = biological target: T1, F. hepatica taurine transporter (FhTauT) (Fasciola hepatica, UniProt A0A2R4LGM2); test: cell-based; details: for inhibition of the transporter (taurine uptake): inhibitors of GABA uptake or GABA degradation; for EC50: 0.1 μM [3H]taurine; for IC50: IC50 of unlabeled taurine for [3H]taurine uptake
T1 sequence (A0A2R4LGM2 1-647): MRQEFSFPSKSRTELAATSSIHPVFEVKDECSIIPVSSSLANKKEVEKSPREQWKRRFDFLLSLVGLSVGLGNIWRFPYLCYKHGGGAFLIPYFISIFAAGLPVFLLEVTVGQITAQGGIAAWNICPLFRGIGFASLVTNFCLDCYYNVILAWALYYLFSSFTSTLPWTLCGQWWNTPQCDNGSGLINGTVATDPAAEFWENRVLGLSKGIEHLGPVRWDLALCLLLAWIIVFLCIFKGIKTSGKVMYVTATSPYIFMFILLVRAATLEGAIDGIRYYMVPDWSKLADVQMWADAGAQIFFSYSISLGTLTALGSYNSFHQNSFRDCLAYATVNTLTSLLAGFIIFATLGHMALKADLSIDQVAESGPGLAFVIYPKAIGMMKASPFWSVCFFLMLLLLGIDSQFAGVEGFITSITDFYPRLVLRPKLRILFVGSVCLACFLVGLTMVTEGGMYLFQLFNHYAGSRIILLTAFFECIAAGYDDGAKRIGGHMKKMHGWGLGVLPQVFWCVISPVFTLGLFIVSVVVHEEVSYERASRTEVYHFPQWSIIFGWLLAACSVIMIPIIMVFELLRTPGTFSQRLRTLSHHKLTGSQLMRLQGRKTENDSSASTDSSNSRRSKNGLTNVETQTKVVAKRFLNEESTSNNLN
Experimental: (§1) Human embryonic kidney-293 (HEK293 (ATCC CRL-1573, LGC standards Wesel, Germany)) cells, were grown in Dulbecco`s modified Eagle medium (DMEM) supplemented with 10% fetal bovine serum (FCS Nuaille, France), 100 units/ml penicillin and 100 μg/ml streptomycin at 37°C and with 5% CO2 in a humidified incubator. Cells were transfected with plasmids encoding fluorescently tagged or untagged versions of F. hepatica (FhTauT) and H. sapiens (HsTauT) taurine transporter using Jet Prime transfection reagent (Polyplus-transfection, France). To generate monoclonal cell lines stably expressing the transporters, transfected cells were subjected to and selected with the concentration of 0.2 mg/ml geneticin (G418) for 10 days. Surviving cells forming colonies were separated and analyzed for membrane localization of transporters and transport of taurine. After the selection process cells were kept at 50 μg/ml G418 to keep the selection pressure.
(§2) For saturation uptake experiments, cells were plated the day before the experiment at a density of about 50,000 cells/well onto poly (D-lysine)-coated 48-well culture plates (CytoOne, USA). On the day of the experiment, cells were washed with prewarmed Krebs-HEPES buffer twice (KHB) (120 mM NaCl, 3 mM KCl, 2 mM CaCl2, 2 mM MgCl2, 20 mM glucose, 10 mM HEPES, pH 7.3). Then, cells were incubated in KHB containing tracer amounts (0.1 μM) of [^3H]taurine, (19.1 Ci/mmol) (Perkin Elmer, USA) together with increasing concentrations of non-labeled taurine 10 min. The reaction was terminated after 10 minutes by removing the medium followed by rapid rinsing of cells with ice-cold assay buffer. Subsequently, cells were lysed with 0.5 ml of 1% sodium dodecyl sulfate (SDS) and transferred into scintillation vials for liquid scintillation counting. Non-specific uptake was determined by incubating cells in the presence of the blocker β-alanine (100 mM) before and during the experiment and subtracted from uptake values. Data were fit to a Michaelis-Menten equation.
(§3) Chloride-free KHB was prepared to examine the chloride dependence of both, FhTauT and HsTauT using acetate salts instead of chloride salts. Likewise, NaCl was replaced by choline chloride to examine the sodium requirement. Uptake experiments were performed as described above using 0.1 μM [^3H]taurine in sodium- and chloride-free modified KHB, respectively, mixed with increasing amounts of NaCl containing KHB thereby varying Na^+ and respectively Cl^- concentration from 0–120 mM. The inhibition experiments were performed in analogous manner with 0.1 μM [^3H]taurine and the logarithmically spaced concentrations of inhibitors.

[2] = biological target: T2, human taurine transporter (HsTauT) (Homo sapiens, UniProt P31641); test: [3H]taurine uptake by HEK293 cells stably expressing the human taurine transporter; details: for EC50: 0.1 μM [3H]taurine; for IC50: IC50 of unlabeled taurine for [3H]taurine uptake
T2 sequence (P31641 1-620): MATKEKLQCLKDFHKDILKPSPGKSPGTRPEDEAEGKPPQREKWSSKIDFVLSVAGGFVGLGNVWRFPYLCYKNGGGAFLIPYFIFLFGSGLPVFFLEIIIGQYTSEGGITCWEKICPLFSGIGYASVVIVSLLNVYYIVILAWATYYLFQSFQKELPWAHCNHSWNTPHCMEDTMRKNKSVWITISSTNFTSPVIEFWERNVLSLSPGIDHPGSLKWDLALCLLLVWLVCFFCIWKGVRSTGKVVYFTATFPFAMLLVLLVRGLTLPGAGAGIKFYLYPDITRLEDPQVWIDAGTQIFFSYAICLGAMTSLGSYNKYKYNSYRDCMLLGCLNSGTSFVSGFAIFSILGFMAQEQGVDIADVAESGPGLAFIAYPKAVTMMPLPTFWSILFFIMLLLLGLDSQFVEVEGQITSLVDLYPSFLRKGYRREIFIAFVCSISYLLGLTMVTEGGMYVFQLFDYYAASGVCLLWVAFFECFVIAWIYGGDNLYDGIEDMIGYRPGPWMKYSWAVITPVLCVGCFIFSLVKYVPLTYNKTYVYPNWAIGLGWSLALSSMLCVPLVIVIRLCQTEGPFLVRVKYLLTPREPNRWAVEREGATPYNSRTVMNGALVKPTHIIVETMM
Experimental: as §1, §2, §3

adult F. hepatica = assay type: cell-based; details: for time all flukes alive and motile: Hédon-Fleig medium; for survival of flukes: 4 h
Experimental: Fig 8 Survival of adult F. hepatica in bile acid-containing medium in the presence and absence of taurine. A: Adult flukes (12 flukes/condition in individual wells) were incubated at 37°C and 5% CO2 in a humidified atmosphere in Hédon Feig medium in the absence (control, closed circles) or presence of 50 μM taurine (closed circle), of 2 mM GES (GES, closed triangle) or of bile acids (closed triangle, 5 mM cholic acid, 1.5 mM deoxycholic acid and 0.5 mM chenodeoxycholic acid). The number of dead flukes was recorded at the indicated time points. B: Adult flukes were incubated at 37°C and 5% CO2 in a humidified atmosphere in Hédon Feig medium in the absence (control) or presence of bile acids (5 mM cholic acid, 1.5 mM deoxycholic acid and 0.5 mM chenodeoxycholic acid). Where indicated, the medium contained, in addition, 50 μM taurine or the combination of 50 μM taurine and 2 mM GES (GES) for 4h. The number of dead flukes was recorded at the end of the incubation period. The data are from three independent experiments with 11 to 12 flukes/condition. […] Thus, after Bonferroni correction for multiple testing (with α≤0.016), taurine afforded a statistically significant protection against bile acids.
F. hepatica was isolated from the bile ducts of cows slaughtered at Alpenrind GmbH (Salzburg, Austria). Flukes were kept in modified Hedon Fleig`s solution at 37°C and 5% CO2 in a humidified atmosphere. Before the experiment, flukes were maintained at 37°C for three days after extraction to clear them from bile acids. Living flukes (judged by observing movement after gently tapping them with metal forceps) were transferred into flasks containing either Hedon Fleig`s Solution alone or Hedon Fleig`s Solution supplemented with combinations of bile acids (5 mM cholic acid (CA), 1.5 mM deoxycholic acid (DCA) and […] chenodeoxycholic acid (CDC)), 50 μM taurine and 2 mM guanidinoethyl sulfonate (GES). Survival of flukes was determined again after four hours of treatment.

[3] = substrate: NCCS(=O)(=O)O; test: cells, lysate or membranes; details: other: 10 min uptake, HEK293 cells; pH 7.3; 37.0 °C
[4] = read-out: EC50 of Na+ for half-maximum stimulation of transport, sodium replaced with choline
[5] = read-out: EC50 of chloride for substrate uptake (apparent affinity), chloride replaced with acetate
[6] = read-out: EC50 of chloride for substrate uptake (apparent affinity), chloride replaced with acetate, listed as Cl^-
[7] = HEK293, read-out: residual [3H]taurine uptake

Q: Which “inhibition of the transporter (taurine uptake)” value [1] does the source give for `Cc1ccsc1C(=CCCN1CCC[C@@H](C(=O)O)C1)c1sccc1C` [tiagabine] here?
A: Its value is “failed to inhibit”.

Q: For `[Na+]` [Na^+], which EC50 [1, 4] is on record?
A: The EC50 was 51.4 ± 6 mM.

Q: And the “Hill coefficient of sodium saturation curve” value ([1]; sodium replaced with choline)?
A: Its value is 1.6±0.1.

Q: What about the EC50 [2, 4] of the same molecule?
A: Its EC50 is 56.5 ± 7.1 mM.

Q: And the “Hill coefficient of sodium saturation curve” value ([2]; sodium replaced with choline)?
A: The value was 2.3±0.1.

Q: How did the EC50 [1, 5] turn out when `Cl` [chloride] was run?
A: Its EC50 is 13.9 ± 3.1 mM.

Q: What about the EC50 [1, 6] of the same molecule?
A: Its EC50 is 14 ± 3 mM.

Q: What about the EC50 [2, 5] of the same molecule?
A: Its EC50 is 54.8 ± 6.9 mM.

Q: And the EC50 [2, 6]?
A: Its EC50 is 55 ± 7 mM.

Q: Which “mode of inhibition of taurine uptake” value ([1]; Dixon plot, intersecting lines) does the source give for `NC(N)=NCCS(=O)(=O)O` [GES, guanidinoethyl sulfonate] here?
A: Its value is “non-competitive inhibitor”.

Q: And the remaining activity at 1000 µM [1, 7]?
A: Its remaining activity at 1000 µM is ~75%.

Q: What about the remaining activity at 3000 µM [1, 7] of the same molecule?
A: The remaining activity at 3000 µM was ~40%.

Q: What about the “affinity of F. hepatica transporter relative to human transporter” value ([1]; comparison of residual uptake, Fig 6A vs 6C) of the same molecule?
A: Its value is “about ten-fold lower”.

Q: And the “mode of inhibition of taurine uptake” value ([2]; Dixon plot, parallel lines)?
A: The value was “competitive inhibition”.

Q: And the “time all flukes alive and motile” value (adult F. hepatica; 2 mM GES alone)?
A: Its value is “at least 6 h”.

Q: What about the survival of flukes (adult F. hepatica; bile acids plus 50 μM taurine plus 2 mM GES) of the same molecule?
A: The survival of flukes was 44%.

Q: Which “inhibition of the transporter (taurine uptake)” value [1] does the source give for `C=CC(N)CCC(=O)O` (stereo not drawn) [vigabatrin] here?
A: Its value is “failed to inhibit”.

Q: For `NCCS(=O)(=O)O` [taurine, 2-aminoethanesulfonic acid], which IC50 ([1]; absence of GES) is on record?
A: The IC50 was 0.0117 ± 0.0041 mM.

Q: What about the IC50 ([1]; presence of 1 mM GES) of the same molecule?
A: The IC50 was 0.0187 ± 0.0067 mM.

Q: And the IC50 ([1]; presence of 3 mM GES)?
A: The IC50 was 0.016 ± 0.0042 mM.

Q: And the “maximum velocity of uptake” value ([1]; [3H]taurine, HEK293 cells)?
A: The value was 178 ± 2 pmol*10^−6 cells*min^-1.

Q: And the “[3H]taurine accumulation relative to untransfected control cells” value ([1]; transfected vs untransfected HEK293 cells)?
A: Its value is “about 10 fold”.

Q: What about the IC50 ([2]; absence of GES) of the same molecule?
A: The IC50 was 0.0412 ± 0.0082 mM.

Q: And the IC50 ([2]; presence of 0.1 mM GES)?
A: The IC50 was 0.0521 ± 0.0095 mM.

Q: And the IC50 ([2]; presence of 0.3 mM GES)?
A: The IC50 was 0.0989 ± 0.0201 mM.

Q: What about the “maximum velocity of uptake” value ([2]; [3H]taurine, HEK293 cells) of the same molecule?
A: The value was 971.0 ± 60.3 pmol*10^−6 cells*min^-1.

Q: What about the “time all flukes alive and motile” value (adult F. hepatica; 50 μM taurine alone) of the same molecule?
A: The value was “at least 6 h”.

Q: And the survival of flukes (adult F. hepatica; bile acids plus 50 μM taurine)?
A: Its survival of flukes is “about 80%”.

B1: human taurine transporter (HsTauT) (Homo sapiens) (protein)
chain: MATKEKLQCLKDFHKDILKPSPGKSPGTRPEDEAEGKPPQREKWSSKIDFVLSVAGGFVGLGNVWRFPYLCYKNGGGAFLIPYFIFLFGSGLPVFFLEIIIGQYTSEGGITCWEKICPLFSGIGYASVVIVSLLNVYYIVILAWATYYLFQSFQKELPWAHCNHSWNTPHCMEDTMRKNKSVWITISSTNFTSPVIEFWERNVLSLSPGIDHPGSLKWDLALCLLLVWLVCFFCIWKGVRSTGKVVYFTATFPFAMLLVLLVRGLTLPGAGAGIKFYLYPDITRLEDPQVWIDAGTQIFFSYAICLGAMTSLGSYNKYKYNSYRDCMLLGCLNSGTSFVSGFAIFSILGFMAQEQGVDIADVAESGPGLAFIAYPKAVTMMPLPTFWSILFFIMLLLLGLDSQFVEVEGQITSLVDLYPSFLRKGYRREIFIAFVCSISYLLGLTMVTEGGMYVFQLFDYYAASGVCLLWVAFFECFVIAWIYGGDNLYDGIEDMIGYRPGPWMKYSWAVITPVLCVGCFIFSLVKYVPLTYNKTYVYPNWAIGLGWSLALSSMLCVPLVIVIRLCQTEGPFLVRVKYLLTPREPNRWAVEREGATPYNSRTVMNGALVKPTHIIVETMM
Q: With B1 as the molecule, how does the Km [3] read?
A: The Km was 41.0 ± 10.4 µM.

B2: F. hepatica taurine transporter (FhTauT) (Fasciola hepatica) (protein)
chain: MRQEFSFPSKSRTELAATSSIHPVFEVKDECSIIPVSSSLANKKEVEKSPREQWKRRFDFLLSLVGLSVGLGNIWRFPYLCYKHGGGAFLIPYFISIFAAGLPVFLLEVTVGQITAQGGIAAWNICPLFRGIGFASLVTNFCLDCYYNVILAWALYYLFSSFTSTLPWTLCGQWWNTPQCDNGSGLINGTVATDPAAEFWENRVLGLSKGIEHLGPVRWDLALCLLLAWIIVFLCIFKGIKTSGKVMYVTATSPYIFMFILLVRAATLEGAIDGIRYYMVPDWSKLADVQMWADAGAQIFFSYSISLGTLTALGSYNSFHQNSFRDCLAYATVNTLTSLLAGFIIFATLGHMALKADLSIDQVAESGPGLAFVIYPKAIGMMKASPFWSVCFFLMLLLLGIDSQFAGVEGFITSITDFYPRLVLRPKLRILFVGSVCLACFLVGLTMVTEGGMYLFQLFNHYAGSRIILLTAFFECIAAGYDDGAKRIGGHMKKMHGWGLGVLPQVFWCVISPVFTLGLFIVSVVVHEEVSYERASRTEVYHFPQWSIIFGWLLAACSVIMIPIIMVFELLRTPGTFSQRLRTLSHHKLTGSQLMRLQGRKTENDSSASTDSSNSRRSKNGLTNVETQTKVVAKRFLNEESTSNNLN
Q: B2 was tested. Which Km [3] did it give?
A: The Km was 12.0 ± 0.5 µM.
